According to the supplement of paper PMC10307832:

What was measured:
Test in all cases: relative viability (nuclei count vs DMSO), 5 days (fraction); higher = more cells survive
AGI-6780 + Decitabine = compound: O=C(Nc1cccc(C(F)(F)F)c1)Nc1cc(S(=O)(=O)NC2CC2)ccc1-c1ccsc1 [AGI-6780] + Nc1ncn([C@H]2C[C@H](O)[C@@H](CO)O2)c(=O)n1 [Decitabine] (partner 2 µM)
Method in brief: (§1)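 Lung cancer cell lines were pin-tool dosed in 1536-well plates on the day after seeding, with either a lone drug or a fixed anchor-drug dose plus five library-drug doses (not always all listed) in √10 steps. Nuclei were counted on 4× images after 5 days. Relative viability is the ratio of treated-well to vehicle-well nuclei counts, with each value a median of duplicate plates.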

AGI-6780 + Olaparib = compound: O=C(Nc1cccc(C(F)(F)F)c1)Nc1cc(S(=O)(=O)NC2CC2)ccc1-c1ccsc1 [AGI-6780] + O=C(c1cc(Cc2n[nH]c(=O)c3ccccc23)ccc1F)N1CCN(C(=O)C2CC2)CC1 [Olaparib] (partner 8 µM)
Method in brief: as §1

AGI-6780 + Lapatinib = compound: O=C(Nc1cccc(C(F)(F)F)c1)Nc1cc(S(=O)(=O)NC2CC2)ccc1-c1ccsc1 [AGI-6780] + CS(=O)(=O)CCNCc1ccc(-c2ccc3ncnc(Nc4ccc(OCc5cccc(F)c5)c(Cl)c4)c3c2)o1 [Lapatinib] (partner 2 µM)
Method in brief: as §1

AGI-6780 + AZD7762 = compound: O=C(Nc1cccc(C(F)(F)F)c1)Nc1cc(S(=O)(=O)NC2CC2)ccc1-c1ccsc1 [AGI-6780] + NC(=O)Nc1cc(-c2cccc(F)c2)sc1C(=O)N[C@H]1CCCNC1 [AZD7762] (partner 0.2 µM)
Method in brief: as §1

Cell Line | relative viability (AGI-6780 + Decitabine; first compound 0.253 µM) | relative viability (AGI-6780 + Decitabine; first compound 0.8 µM) | relative viability (AGI-6780 + Decitabine; first compound 2.53 µM) | relative viability (AGI-6780 + Decitabine; first compound 8 µM) | relative viability (AGI-6780 + Olaparib; first compound 0.253 µM) | relative viability (AGI-6780 + Olaparib; first compound 0.8 µM) | relative viability (AGI-6780 + Olaparib; first compound 2.53 µM) | relative viability (AGI-6780 + Olaparib; first compound 8 µM) | relative viability (AGI-6780 + Lapatinib; first compound 0.08 µM) | relative viability (AGI-6780 + Lapatinib; first compound 0.253 µM) | relative viability (AGI-6780 + Lapatinib; first compound 0.8 µM) | relative viability (AGI-6780 + Lapatinib; first compound 2.53 µM) | relative viability (AGI-6780 + Lapatinib; first compound 8 µM) | relative viability (AGI-6780 + AZD7762; first compound 0.253 µM) | relative viability (AGI-6780 + AZD7762; first compound 0.8 µM) | relative viability (AGI-6780 + AZD7762; first compound 2.53 µM) | relative viability (AGI-6780 + AZD7762; first compound 8 µM) | relative viability (AGI-6780 + Decitabine; first compound 0.08 µM) | relative viability (AGI-6780 + Olaparib; first compound 0.08 µM) | relative viability (AGI-6780 + AZD7762; first compound 0.08 µM)
EMC-BAC-2 | 1.01 | 0.927 | 0.855 | 1.04 | 0.477 | 0.409 | 0.45 | 0.53 | 0.919 | 0.929 | 0.878 | 0.725 | 0.94 | 1.15 | 1.16 | 0.877 | 1.02 | – | – | –
EPLC-272H | 0.348 | 0.359 | 0.372 | 0.374 | 0.827 | 0.633 | 0.732 | 0.942 | 0.921 | 0.949 | 0.881 | 0.747 | 1.11 | 0.369 | 0.345 | 0.278 | 0.219 | 0.405 | 0.748 | 0.2
H3255 | 0.612 | 0.719 | – | 0.542 | 0.526 | 0.607 | 0.566 | 0.632 | 0.222 | 0.275 | 0.248 | 0.204 | 0.263 | 0.918 | 1.05 | 1.01 | 0.875 | 0.54 | 0.505 | 0.834
HARA | 0.446 | 0.513 | 0.402 | 0.61 | 0.945 | 0.311 | 0.893 | 0.83 | 0.872 | 0.825 | 0.613 | 0.681 | 0.707 | 0.611 | 0.223 | 0.367 | 0.313 | 0.481 | 0.847 | 0.541
HCC-15 | 0.756 | 0.666 | 0.546 | 0.697 | 0.808 | 0.703 | 0.657 | 0.76 | 0.896 | 0.824 | 0.971 | 0.83 | 0.856 | 1.32 | 1.34 | 1.43 | 1.25 | 0.677 | 0.724 | 1.18
HCC-44 | 0.977 | 0.997 | 0.94 | 0.968 | 0.989 | 0.98 | 0.979 | 1.02 | 0.989 | 1 | 1.03 | 0.96 | 1.04 | 1.11 | 1.04 | 1.07 | 1.04 | 0.926 | 1.03 | 0.916
HCC-78 | 0.695 | 0.708 | 0.661 | 0.688 | 0.798 | 1.06 | 0.665 | 0.849 | 0.66 | 0.702 | 0.821 | 0.485 | 0.992 | 0.697 | 0.837 | 0.684 | 0.681 | 0.604 | 0.897 | 0.978
HCC-366 | 0.304 | 0.39 | 0.308 | 0.355 | 0.38 | 0.364 | 0.258 | 0.426 | 1.05 | 1.08 | 1.01 | 1.1 | 1.05 | 0.293 | 0.34 | 0.35 | 0.193 | 0.341 | 0.369 | 0.232
